Results on two molecules are retold here after patent US6849624B2, “Aromatic and heteroaromatic substituted amides” (Hoffmann-La Roche Inc., priority 2001, dated 2005).

Data set [1] concerns the target T1, human NK1 receptor (Homo sapiens, UniProt P25103).
T1 construct: expressed in transfected cells; host or cells: CHO cells (Semliki virus expression system)
The data set can be described thus: [3H]substance P binding to human NK1 receptor in transfected CHO cells. The note with it: recombinant human NK1 receptor in CHO cells, [3H]substance P 0.6 nM; read-out: affinity (pKi) for the human NK1 receptor (converted). How it is done:
The affinities of the compounds 2-(3,5-bis-trifluoromethyl-phenyl)-N-[6-(1,1-dioxo-1λ^6-thiomorpholin-4-yl)-4-o-tolyl-pyridin-3-yl]-N-methyl-isobutyramide and 2-(3,5-bis-trifluoromethyl-phenyl)-N-[6-(1,1-dioxo-1λ^6-thiomorpholin-4-yl)-4-(4-fluoro-2-methyl-phenyl)-pyridin-3-yl]-N-methyl-isobutyramide for the human NK1 receptor were evaluated in Chinese Hamster Ovary (CHO) cells transfected with the human NK1 receptor (using the Semliki Virus expression system) and radiolabelled with [^3H]substance P (final concentration 0.6 nM). Binding assays were performed in HEPES buffer (50 mM, pH 7.4) containing BSA (0.04%), leupeptin (8 μg/ml), MnCl2 (3 mM) and phosphoramidon (2 μM). Binding assays consisted of 250 μl of membrane suspension (1.25×10^5 cells/assay tube), […] of buffer of displacing agent and 125 μl of [^3H] substance P. Displacement curves were determined with at least seven concentrations of the compound. The assay tubes were incubated for 60 min at room temperature after which time the tube contents were rapidly filtered under vacuum through GF/C filters presoaked for 60 min with PEI (0.3%) with 2×2 ml washes of HEPES buffer (50 mM, pH 7.4). The radioactivity retained on the filters was measured by scintillation counting. All assays were performed in triplicate in at least 2 separate experiments. […]

Data set [2] deals with T1, human NK1 receptor. Kind of data set: substance P induced Ca2+ influx in CHO cells expressing recombinant human NK1 receptor (FLIPR). The conditions noted are these: increasing concentrations, CHO cells with recombinant human NK1 receptor. It is filed as cell-based. An excerpt:
The activity in vitro was examined by studying its effect on substance P induced Ca^2+ influxes in CHO cells expressing the recombinant human NK1 receptor. In these cells, substance P causes a concentration dependent influx of Ca^2+ which can be measured using FLIPR technology.

A short description of data set [3]: pharmacokinetic parameters in rats. The conditions noted are these: rat, in vivo; for bioavailability: po; for half-life: read-out: terminal half-life (converted); for Vd: read-out: volume of distribution. The source says: (§1) The pharmacokinetic parameters of both compounds have been evaluated in both rats and dogs.
The target of a further data set is T2, NK1 receptor (Meriones unguiculatus, UniProt Q5DUB1).
T2 construct: from tissue; host or cells: living gerbils (brain, i.c.v. agonist injection)
The data set can be described thus: foot-tapping behavior induced in Gerbils by i.c.v. injection of an NK1 receptor agonist. Type of data set: in vivo. The note with it: Gerbil; for dose calculated to inhibit 50% of the foot-tapping behavior: oral administration; for total plasma concentration required to completely block the foot-tapping behavior: total plasma level. As for the experimental part: In vivo 2-(3,5-bis-trifluoromethyl-phenyl)-N-[6-(1,1-dioxo-1λ^6-thiomorpholin-4-yl)-4-o-tolyl-pyridin-3-yl]-N-methyl-isobutyramide antagonizes foot-tapping behavior induced in Gerbils with intracerebroventricular (i.c.v.) injections of an NK1 receptor agonist. The dose for this compound calculated to inhibit 50% of the foot-tapping behavior following oral administration was 0.8 mg/kg. […] Similarly, 2-(3,5-bis-trifluoromethyl-phenyl)-N-[6-(1,1-dioxo-1λ^6-thiomorpholin-4-yl)-4-(4-fluoro-2-methyl-phenyl)-pyridin-3-yl]-N-methyl-isobutyramide also antagonized NK1 agonist-induced foot-tapping in Gerbils. The dose for this compound calculated to inhibit 50% of the foot-tapping behavior following oral administration was 0.1 mg/kg. The total plasma levels that are required to completely antagonize this behavior are less than 10 ng/ml.

The nature of data set [4]: pharmacokinetic parameters in dogs. The conditions noted are these: dog, in vivo; for Vd: read-out: volume of distribution.
From the text: as §1

T2 sequence (Q5DUB1 whole entry): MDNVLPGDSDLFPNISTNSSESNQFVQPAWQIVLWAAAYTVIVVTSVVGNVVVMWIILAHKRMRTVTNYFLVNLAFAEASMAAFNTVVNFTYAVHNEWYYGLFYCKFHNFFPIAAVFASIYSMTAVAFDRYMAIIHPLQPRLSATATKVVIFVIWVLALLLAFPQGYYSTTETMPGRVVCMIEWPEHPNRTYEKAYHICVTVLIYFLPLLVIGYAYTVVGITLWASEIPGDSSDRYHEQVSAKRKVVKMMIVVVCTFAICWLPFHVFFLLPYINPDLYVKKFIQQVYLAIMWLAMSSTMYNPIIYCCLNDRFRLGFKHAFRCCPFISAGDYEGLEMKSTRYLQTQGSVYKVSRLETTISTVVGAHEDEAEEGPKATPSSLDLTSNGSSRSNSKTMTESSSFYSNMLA
T1 sequence (P25103 whole entry): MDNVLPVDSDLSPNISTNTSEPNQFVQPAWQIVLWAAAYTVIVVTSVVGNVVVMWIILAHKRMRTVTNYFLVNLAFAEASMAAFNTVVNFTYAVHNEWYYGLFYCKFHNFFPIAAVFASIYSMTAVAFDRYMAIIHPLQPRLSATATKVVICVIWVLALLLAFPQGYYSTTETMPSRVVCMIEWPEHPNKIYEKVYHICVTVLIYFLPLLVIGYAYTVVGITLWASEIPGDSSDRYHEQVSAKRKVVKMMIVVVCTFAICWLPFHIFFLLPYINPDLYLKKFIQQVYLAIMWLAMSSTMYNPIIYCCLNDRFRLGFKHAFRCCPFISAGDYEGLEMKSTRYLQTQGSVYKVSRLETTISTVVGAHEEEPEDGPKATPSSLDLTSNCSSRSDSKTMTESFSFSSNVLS

As usually defined, the clearance is a measure of how efficiently the substance is removed, as volume per time. By bioavailability is commonly meant dose-corrected exposure relative to a reference, in per cent. Higher therefore signals much systemic uptake. In general, half-life refers to the time in which the quantity being followed falls by half. On to `Cc1cc(F)ccc1-c1cc(N2CCS(=O)(=O)CC2)ncc1N(C)C(=O)C(C)(C)c1cc(C(F)(F)F)cc(C(F)(F)F)c1` [2-(3,5-Bis-trifluoromethyl-phenyl)-N-[6-(1,1-dioxo-1λ^6-thiomorpholin-4-yl)-4-(4-fluoro-2-methyl-phenyl)-pyridin-3-yl]-N-methyl-isobutyramide], for which the Ki at human NK1 receptor [1] is 0.316 nM. On human NK1 receptor [2], the “effect on substance P induced Ca2+ influx” value is on record as “inhibited the substance P induced Ca^2+ influx”. In data set [3], the clearance was in the range of 0.3 to 1.2 mL/min/kg, the bioavailability turned out to be 61%, the half-life is 21 h and the Vd was determined as 0.7 L/kg. For the same molecule, on NK1 receptor, the “dose calculated to inhibit 50% of the foot-tapping behavior” value was 0.1 mg/kg and the “total plasma concentration required to completely block the foot-tapping behavior” value is “less than 10 ng/ml”. In data set [4], the clearance was 1.4 mL/min/kg, the half-life was 56 h and the Vd is 1.5 L/kg.

A word on the melting point: it is the temperature, or range, at which the solid turns liquid. For the molecule `Cc1ccccc1-c1cc(N2CCS(=O)(=O)CC2)ncc1N(C)C(=O)C(C)(C)c1cc(C(F)(F)F)cc(C(F)(F)F)c1` [2-(3,5-Bis-trifluoromethyl-phenyl)-N-[6-(1,1-dioxo-1λ^6-thiomorpholin-4-yl)-4-o-tolyl-pyridin-3-yl]-N-methyl-isobutyramide], the melting point was 200 to 201 °C. In addition, the Ki on human NK1 receptor [1] was 1.26 nM. Besides, the “effect on substance P induced Ca2+ influx” value at human NK1 receptor [2] is listed as “inhibited the substance P induced Ca^2+ influx”. Also, in data set [3], the clearance is 4.7 mL/min/kg, the bioavailability amounted to 18%, the half-life is 9 h and the Vd turned out to be 4 L/kg. In addition, at NK1 receptor, the “dose calculated to inhibit 50% of the foot-tapping behavior” value is 0.8 mg/kg and the “total plasma concentration required to completely block the foot-tapping behavior” value is 10 ng/mL. For the same molecule, in data set [4], the clearance was 5 mL/min/kg, the half-life is 8 h and the Vd stood at 4 L/kg.
